Results reported in PMC4186413, “Identification of metabolic pathways and enzyme systems involved in the in vitro human hepatic metabolism of dronedarone, a potent new oral antiarrhythmic drug” (Pharmacology Research & Perspectives, 2014).

Key:
CYP1A1 = target: T1, CYP1A1 (Homo sapiens, UniProt P04798); experiment: Oxidation by recombinant human CYP1A1; assay type: in vitro ADME; conditions: 100 pmol/mL, 5 μmol/L, 30 min, NADPH
T1 construct: purchased BD Gentest (Woburn, MA); host or cells: baculovirus-infected insect cells
Text: (§1) Recombinant human CYPs (Supersomes™; BD Gentes, Woburn, MA: CYP1A1, CYP1A2, CYP2A6, CYP2B6, CYP2C8, CYP2C9, CYP2C18, CYP2C19, CYP2D6, CYP2E1, CYP3A4 and CYP3A5), FMOs (Supersomes™: FMO1, FMO3, FMO5), MAOs (Supersomes™: MAO-A and MAO-B), and UGTs (Supersomes™: UGT1A1, UGT1A3, UGT1A4, UGT1A6, UGT1A7, UGT1A8, UGT1A9, UGT1A10, UGT2B4, UGT2B7, UGT2B15, and UGT2B17) expressed in baculovirus-infected insect cells and control microsomes from insect cells infected with wild-type baculovirus were all obtained from BD Gentest (Woburn, MA). […]
(§2) In human liver microsomes and recombinant isoforms, the percentage of metabolism was determined on the basis of unchanged drug disappearance, using the following equation [drawing 1] where UDt = 30 min represents the unchanged drug peak area after a 30-min incubation period and UDt = 0, the unchanged drug peak area at t = 0. […]
(§3) Figure 5 Contribution of individual CYPs, FMOs and MAOs to the oxidation of dronedarone and its metabolites. […] Unchanged drugs were quantified by LC/MS-MS relative to the synthetic references as described in Materials and Methods. Data are expressed as the percentage of oxidation.

UGT2B7 = target: T2, UGT2B7 (Homo sapiens, UniProt P16662); experiment: Glucuronidation by recombinant human UGT2B7; assay type: in vitro ADME; conditions: 1 mg/mL, 5 μmol/L, 30 min, UDPGA
T2 construct: purchased BD Gentest (Woburn, MA); host or cells: baculovirus-infected insect cells
Text: (§4) Recombinant human CYPs (Supersomes™; BD Gentes, Woburn, MA: CYP1A1, CYP1A2, CYP2A6, CYP2B6, CYP2C8, CYP2C9, CYP2C18, CYP2C19, CYP2D6, CYP2E1, CYP3A4 and CYP3A5), FMOs (Supersomes™: FMO1, FMO3, FMO5), MAOs (Supersomes™: MAO-A and MAO-B), and UGTs (Supersomes™: UGT1A1, UGT1A3, UGT1A4, UGT1A6, UGT1A7, UGT1A8, UGT1A9, UGT1A10, UGT2B4, UGT2B7, UGT2B15, and UGT2B17) expressed in baculovirus-infected insect cells and control microsomes from insect cells infected with wild-type baculovirus were all obtained from BD Gentest (Woburn, MA).
(§5) For glucuronidation pathways, the assay mixture was composed of human liver microsomes (2 mg·mL^−1) or microsomes of baculovirus-infected cells expressing human UGTs (1 mg·mL^−1), uridine 5′-diphosphoglucuronic acid (UDPGA) (3 mmol/L), 100 mmol/L Tris HCl (pH 7.4) containing 5 mmol/L MgCl2 and 5 μmol/L of the investigated compound dissolved in DMSO in a final volume of 500 μL. The final concentration of DMSO in the reaction mixture was less than 1% (v/v). […]
(§6) Figure 7 Contribution of individual UGTs to the glucuronidation of propanoic acid-dronedarone and phenol-dronedarone. […] Unchanged drugs were quantified by LC/MS-MS relative to the synthetic references as described in Materials and Methods. Data are expressed as the percentage of glucuronidation.

CYP3A4 [1] = target: T3, CYP3A4 (Homo sapiens, UniProt P08684); experiment: Oxidation by recombinant human CYP3A4; assay type: in vitro ADME; conditions: for Percentage of oxidation (unchanged drug disappearance) by CYP3A4: 100 pmol/mL, 5 μmol/L, 30 min, NADPH
T3 construct: purchased BD Gentest (Woburn, MA); host or cells: baculovirus-infected insect cells
Text: as §4
For oxidative pathways, the assay mixture was composed of human liver microsomes (1 mg·m·L^−1) or microsomes of baculovirus-infected cells expressing human enzymes (100 pmol·mL^−1 for CYPs and 1 mg·mL^−1 for FMOs and MAOs), nicotinamide adenine dinucleotide phosphate reduced form (NADPH) (1 mmol/L), 100 mmol/L potassium phosphate (pH 7.4), and 5 μmol/L of the investigated compound dissolved in DMSO in a final volume of 500 μL.
The final concentration of DMSO in the reaction mixture was less than 1% (v/v). Initial rate conditions with respect to time and protein concentration for both the disappearance of unchanged drug and the formation of respective metabolites were established in preliminary studies. […]
as §2, §3

CYP3A5 = target: T4, CYP3A5 (Homo sapiens, UniProt P20815); experiment: Oxidation by recombinant human CYP3A5; assay type: in vitro ADME
T4 construct: purchased BD Gentest (Woburn, MA); host or cells: baculovirus-infected insect cells
Text: as §1, §2, §3

MAO-A = target: T5, MAO-A (Homo sapiens, UniProt P21397); experiment: Oxidation by recombinant human MAO-A; assay type: in vitro ADME; conditions: 1 mg/mL, 5 μmol/L, 30 min, no cofactor
T5 construct: purchased BD Gentest (Woburn, MA); host or cells: baculovirus-infected insect cells
Text: as §1, §2, §3

CYP3A4 [2] = conditions: reversible inhibition, human liver microsomes, reported; cited from earlier work
CYP2D6 = target: T6, CYP2D6 (Homo sapiens, UniProt P10635); conditions: reversible inhibition, human liver microsomes, reported; cited from earlier work
T6 construct: purchased BD Gentest (Woburn, MA); host or cells: baculovirus-infected insect cells

[3] = cited from earlier work
CYP2C19 = target: T7, CYP2C19 (Homo sapiens, UniProt P33261); experiment: Oxidation by recombinant human CYP2C19; assay type: in vitro ADME; conditions: 100 pmol/mL, 5 μmol/L, 30 min, NADPH
T7 construct: purchased BD Gentest (Woburn, MA); host or cells: baculovirus-infected insect cells
Text: as §1, §2, §3

UGT1A1 = target: T8, UGT1A1 (Homo sapiens, UniProt P22309); experiment: Glucuronidation by recombinant human UGT1A1; assay type: in vitro ADME; conditions: 1 mg/mL, 5 μmol/L, 30 min, UDPGA
T8 construct: purchased BD Gentest (Woburn, MA); host or cells: baculovirus-infected insect cells
Text: as §4, §5, §6

UGT1A3 = target: T9, UGT1A3 (Homo sapiens, UniProt P35503); experiment: Glucuronidation by recombinant human UGT1A3; assay type: in vitro ADME; conditions: 1 mg/mL, 5 μmol/L, 30 min, UDPGA
T9 construct: purchased BD Gentest (Woburn, MA); host or cells: baculovirus-infected insect cells
Text: as §4, §5, §6

[4] = 5 μmol/L dronedarone, end of 30-min incubation

T3 sequence (P08684 whole entry): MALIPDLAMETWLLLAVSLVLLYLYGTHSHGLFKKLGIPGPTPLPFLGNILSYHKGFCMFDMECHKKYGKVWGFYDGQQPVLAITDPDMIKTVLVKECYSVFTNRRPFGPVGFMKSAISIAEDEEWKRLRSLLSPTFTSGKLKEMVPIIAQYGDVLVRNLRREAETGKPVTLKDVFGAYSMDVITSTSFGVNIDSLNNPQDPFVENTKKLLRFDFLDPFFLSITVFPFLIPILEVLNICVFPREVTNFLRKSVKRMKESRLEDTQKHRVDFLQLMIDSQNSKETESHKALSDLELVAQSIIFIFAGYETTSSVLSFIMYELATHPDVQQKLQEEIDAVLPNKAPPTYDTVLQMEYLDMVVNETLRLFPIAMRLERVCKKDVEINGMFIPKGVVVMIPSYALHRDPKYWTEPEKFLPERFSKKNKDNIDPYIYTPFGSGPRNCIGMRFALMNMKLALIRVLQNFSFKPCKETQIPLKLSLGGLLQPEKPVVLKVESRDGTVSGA
T1 sequence (P04798 whole entry): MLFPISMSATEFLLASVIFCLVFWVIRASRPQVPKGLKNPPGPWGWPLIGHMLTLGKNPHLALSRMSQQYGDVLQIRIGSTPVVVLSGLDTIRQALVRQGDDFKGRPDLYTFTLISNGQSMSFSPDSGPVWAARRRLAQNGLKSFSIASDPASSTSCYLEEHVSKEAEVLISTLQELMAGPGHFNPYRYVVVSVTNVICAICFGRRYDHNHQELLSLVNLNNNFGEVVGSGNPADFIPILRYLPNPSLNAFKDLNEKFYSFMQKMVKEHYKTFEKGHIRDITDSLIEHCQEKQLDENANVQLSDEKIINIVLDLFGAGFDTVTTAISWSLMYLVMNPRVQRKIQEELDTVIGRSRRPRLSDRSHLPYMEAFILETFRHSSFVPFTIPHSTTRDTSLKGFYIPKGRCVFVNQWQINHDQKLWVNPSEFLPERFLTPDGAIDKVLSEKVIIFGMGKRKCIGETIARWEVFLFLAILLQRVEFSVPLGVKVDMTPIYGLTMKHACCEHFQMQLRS
T2 sequence (P16662 24-529): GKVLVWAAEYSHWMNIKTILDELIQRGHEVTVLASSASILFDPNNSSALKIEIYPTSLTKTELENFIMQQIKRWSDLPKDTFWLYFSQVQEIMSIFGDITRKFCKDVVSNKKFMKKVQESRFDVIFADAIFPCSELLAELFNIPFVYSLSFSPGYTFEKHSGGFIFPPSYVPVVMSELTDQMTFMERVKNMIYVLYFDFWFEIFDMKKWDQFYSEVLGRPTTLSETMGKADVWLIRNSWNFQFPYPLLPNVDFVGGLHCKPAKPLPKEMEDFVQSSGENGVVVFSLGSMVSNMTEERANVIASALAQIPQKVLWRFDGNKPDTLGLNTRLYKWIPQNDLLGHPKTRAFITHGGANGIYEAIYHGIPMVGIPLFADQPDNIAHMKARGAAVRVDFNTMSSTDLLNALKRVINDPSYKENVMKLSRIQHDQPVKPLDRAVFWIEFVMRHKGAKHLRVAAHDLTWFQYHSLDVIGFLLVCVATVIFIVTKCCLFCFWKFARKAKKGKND
T4 sequence (P20815 whole entry): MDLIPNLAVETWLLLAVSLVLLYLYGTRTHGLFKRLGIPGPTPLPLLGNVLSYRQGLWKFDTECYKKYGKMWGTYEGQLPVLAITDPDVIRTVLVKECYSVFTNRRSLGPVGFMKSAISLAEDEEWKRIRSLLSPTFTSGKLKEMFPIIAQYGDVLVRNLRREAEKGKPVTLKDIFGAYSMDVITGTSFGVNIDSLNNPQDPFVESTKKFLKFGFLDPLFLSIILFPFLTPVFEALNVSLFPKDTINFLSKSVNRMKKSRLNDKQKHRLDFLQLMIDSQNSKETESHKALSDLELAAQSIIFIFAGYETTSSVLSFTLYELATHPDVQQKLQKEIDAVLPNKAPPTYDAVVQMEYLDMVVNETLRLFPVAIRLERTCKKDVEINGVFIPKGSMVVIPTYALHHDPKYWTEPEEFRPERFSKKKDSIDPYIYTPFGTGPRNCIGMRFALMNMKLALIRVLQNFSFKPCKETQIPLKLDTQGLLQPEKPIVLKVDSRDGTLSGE
T8 sequence (P22309 26-533): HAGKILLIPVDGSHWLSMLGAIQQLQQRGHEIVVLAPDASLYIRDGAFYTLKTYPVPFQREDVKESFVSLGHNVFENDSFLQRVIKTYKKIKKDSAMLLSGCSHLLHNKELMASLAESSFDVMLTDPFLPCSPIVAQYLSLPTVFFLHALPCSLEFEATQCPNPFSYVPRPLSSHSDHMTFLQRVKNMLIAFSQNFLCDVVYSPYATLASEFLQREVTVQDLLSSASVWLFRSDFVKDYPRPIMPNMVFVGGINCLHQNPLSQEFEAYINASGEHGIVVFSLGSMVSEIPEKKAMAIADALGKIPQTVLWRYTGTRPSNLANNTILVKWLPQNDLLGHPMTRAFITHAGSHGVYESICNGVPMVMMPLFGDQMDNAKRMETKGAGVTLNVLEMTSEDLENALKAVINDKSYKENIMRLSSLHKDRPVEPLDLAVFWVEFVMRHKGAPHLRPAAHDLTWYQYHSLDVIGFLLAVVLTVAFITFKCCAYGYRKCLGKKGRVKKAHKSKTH
T7 sequence (P33261 whole entry): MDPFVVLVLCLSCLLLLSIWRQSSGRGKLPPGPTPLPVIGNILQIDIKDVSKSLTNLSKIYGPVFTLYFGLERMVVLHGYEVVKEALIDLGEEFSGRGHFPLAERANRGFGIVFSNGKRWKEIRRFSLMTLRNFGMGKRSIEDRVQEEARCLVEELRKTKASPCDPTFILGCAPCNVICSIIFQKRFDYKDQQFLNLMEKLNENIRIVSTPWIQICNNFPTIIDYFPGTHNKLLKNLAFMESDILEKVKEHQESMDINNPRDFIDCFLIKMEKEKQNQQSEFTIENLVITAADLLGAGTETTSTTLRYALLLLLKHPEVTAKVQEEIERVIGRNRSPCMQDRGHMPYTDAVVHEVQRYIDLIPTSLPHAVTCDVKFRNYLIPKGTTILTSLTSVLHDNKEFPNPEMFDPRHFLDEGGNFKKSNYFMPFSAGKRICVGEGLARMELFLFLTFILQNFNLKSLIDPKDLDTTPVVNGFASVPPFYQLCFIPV
T5 sequence (P21397 whole entry): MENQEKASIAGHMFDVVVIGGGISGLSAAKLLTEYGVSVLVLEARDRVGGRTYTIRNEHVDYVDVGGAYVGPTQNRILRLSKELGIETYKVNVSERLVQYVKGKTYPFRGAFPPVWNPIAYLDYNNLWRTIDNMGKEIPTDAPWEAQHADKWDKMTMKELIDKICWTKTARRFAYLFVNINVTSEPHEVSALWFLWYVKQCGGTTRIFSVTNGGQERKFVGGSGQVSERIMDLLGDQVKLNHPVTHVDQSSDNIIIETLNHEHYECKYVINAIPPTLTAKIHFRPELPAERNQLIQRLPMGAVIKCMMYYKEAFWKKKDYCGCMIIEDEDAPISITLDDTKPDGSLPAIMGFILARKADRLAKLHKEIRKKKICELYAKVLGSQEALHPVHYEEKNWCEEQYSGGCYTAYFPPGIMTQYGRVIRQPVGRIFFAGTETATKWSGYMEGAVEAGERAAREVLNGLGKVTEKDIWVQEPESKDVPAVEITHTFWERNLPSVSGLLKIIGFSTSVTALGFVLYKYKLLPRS
T9 sequence (P35503 29-534): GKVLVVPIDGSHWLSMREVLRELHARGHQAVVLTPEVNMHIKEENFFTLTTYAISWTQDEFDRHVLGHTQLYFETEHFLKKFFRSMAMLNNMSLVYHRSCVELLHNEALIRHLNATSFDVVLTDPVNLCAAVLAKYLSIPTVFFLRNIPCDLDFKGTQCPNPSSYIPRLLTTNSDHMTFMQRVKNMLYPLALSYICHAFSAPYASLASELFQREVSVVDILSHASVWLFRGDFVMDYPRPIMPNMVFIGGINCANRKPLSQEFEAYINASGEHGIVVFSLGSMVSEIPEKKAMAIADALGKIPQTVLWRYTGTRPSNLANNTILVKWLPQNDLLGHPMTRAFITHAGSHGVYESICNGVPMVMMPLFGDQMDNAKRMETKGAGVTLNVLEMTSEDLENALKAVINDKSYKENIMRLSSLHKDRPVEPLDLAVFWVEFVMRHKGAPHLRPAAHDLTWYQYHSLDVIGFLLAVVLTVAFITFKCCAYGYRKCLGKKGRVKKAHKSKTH
T6 sequence (P10635 whole entry): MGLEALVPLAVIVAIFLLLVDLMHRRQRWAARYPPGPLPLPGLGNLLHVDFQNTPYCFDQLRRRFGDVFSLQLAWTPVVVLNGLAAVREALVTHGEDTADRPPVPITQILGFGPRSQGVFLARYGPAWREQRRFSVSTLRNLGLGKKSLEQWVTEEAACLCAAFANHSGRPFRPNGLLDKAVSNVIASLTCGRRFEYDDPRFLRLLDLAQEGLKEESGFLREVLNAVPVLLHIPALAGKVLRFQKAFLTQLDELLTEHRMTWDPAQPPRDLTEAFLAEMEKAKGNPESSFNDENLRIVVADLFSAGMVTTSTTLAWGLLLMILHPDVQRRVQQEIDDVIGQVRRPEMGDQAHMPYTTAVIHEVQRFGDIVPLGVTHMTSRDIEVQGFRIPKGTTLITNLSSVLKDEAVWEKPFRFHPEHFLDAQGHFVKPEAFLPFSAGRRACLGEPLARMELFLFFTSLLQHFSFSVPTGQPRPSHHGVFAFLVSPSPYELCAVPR

Q: Which results are given for `CCCCc1oc2ccc(NS(C)(=O)=O)cc2c1C(=O)c1ccc(OCCC(=O)O)cc1` [Propanoic acid-dronedarone]?
A: Percentage of oxidation (unchanged drug disappearance) by CYP1A1 (CYP1A1): 59%; Glucuronosyl transferase activity of UGT2B7 (UGT2B7): significant glucuronosyl transferase activity

Q: Which results are given for `CCCCNCCCOc1ccc(C(=O)c2c(CCCC)oc3ccc(NS(C)(=O)=O)cc23)cc1` [N-debutyl-dronedarone]?
A: Percentage of oxidation (unchanged drug disappearance) by CYP3A4 (CYP3A4 [1]): 21%; Metabolite formed, as percent of initial dronedarone concentration, with CYP3A4 (CYP3A4 [1]; [4]): 60%; Metabolite formed, as percent of initial dronedarone concentration, with CYP3A5 (CYP3A5; [4]): 50%; Percentage of oxidation (unchanged drug disappearance) by MAO-A (MAO-A): 98%

Q: What does the source list for `CCCCc1oc2ccc(NS(C)(=O)=O)cc2c1C(=O)c1ccc(OCCCN(CCCC)CCCC)cc1.Cl` [Dronedarone, N-(2-Butyl-3-(4-(3-(dibutylamino)propoxy)benzoyl)-5-benzofuranyl)methanesulfonamide, hydrochloride]?
A: Percentage of oxidation (unchanged drug disappearance) by CYP3A4 (CYP3A4 [1]): 94%; Percentage of oxidation (unchanged drug disappearance) by CYP3A5 (CYP3A5; 100 pmol/mL, 5 μmol/L, 30 min, NADPH): 90%; Ki (CYP3A4 [2]): […]; Ki (CYP2D6): 5 µM; Increase of dronedarone exposure by ketoconazole ([3]; after single dose, clinical findings): 25 fold; Increase of steady state exposure of metoprolol ([3]; dronedarone 400–800 mg twice a day, metoprolol 200 mg daily, CYP2D6 extensive metabolizers, ref Damy et al. [2004]): 1.6- to 2.3 folds; Increase of steady state concentrations of simvastatin and its active metabolite ([3]; healthy volunteers, dronedarone 400 mg BID): […]; Dose excreted in feces mainly as metabolites ([3]; human, in vivo): 84%; Eliminated by first-pass metabolism in the liver by CYP3A4 enzymes ([3]; human, in vivo): > 84%; Increase of trough sirolimus concentrations ([3]; kidney-transplant patient, 3 day-treatment with twice daily 400 mg dronedarone, ref Tichy et al. [2010]): […]; Lowering of dronedarone exposure by rifampicin ([3]; rifampicin 600 mg once daily for 7 days): 5 fold

Q: What does the source list for `CCCCc1oc2ccc(NS(C)(=O)=O)cc2c1C(=O)c1ccc(O)cc1` [Phenol-dronedarone]?
A: Percentage of oxidation (unchanged drug disappearance) by CYP1A1 (CYP1A1): 99%; Percentage of oxidation (unchanged drug disappearance) by CYP2C19 (CYP2C19): 52%; Glucuronosyl transferase activity of UGT2B7 (UGT2B7): significant glucuronosyl transferase activity; Glucuronosyl transferase activity of UGT1A1 (UGT1A1): significant glucuronosyl transferase activity; Glucuronosyl transferase activity of UGT1A3 (UGT1A3): significant glucuronosyl transferase activity
